ChEMBL document CHEMBL3297716, “Rhapontigenin suppresses cell migration and invasion by inhibiting the PI3K-dependent Rac1 signaling pathway in MDA-MB-231 human breast cancer cells” (J Nat Prod, 2014)
Calls of active or inactive are those of the source. The calls are words filed in the database; no cut-off is given here.

What was measured:
MDA-MB-231 [1] = test: Inhibition of PI3K in human MDA-MB-231 cells assessed as inhibition of AKT phosphorylation at 1 to 10 uM after 24 hrs by Western blot analysis; format: cell-based
MDA-MB-231 [2] = test: Effect on total AKT protein level in human MDA-MB-231 cells at 1 to 10 uM after 24 hrs by Western blot analysis; format: functional, cell-based
MDA-MB-231 [3] = test: Cytotoxicity against human MDA-MB-231 cells assessed as cell viability at 100 to 200 uM after 24 hrs by MTT assay; format: cell-based; conditions: mda-mb-231, 24 h
MDA-MB-231 [4] = test: Cytotoxicity against human MDA-MB-231 cells assessed as cell viability up to 50 uM after 24 hrs by MTT assay; format: cell-based; conditions: mda-mb-231, 24 h
Homo sapiens [5] = species on record: Homo sapiens; test: Inhibition of PI3K-dependent Rac1 activation in human MDA-MB-231 cells assessed as suppression of serum-induced cell migration at 10 uM after 24 hrs by wound-healing assay relative to control; format: cell-based
Homo sapiens [6] = species on record: Homo sapiens; test: Inhibition of PI3K-dependent Rac1 activation in human MDA-MB-231 cells assessed as suppression of serum-induced cell migration at 25 uM after 24 hrs by wound-healing assay relative to control; format: cell-based
Homo sapiens [7] = species on record: Homo sapiens; test: Inhibition of PI3K-dependent Rac1 activation in human MDA-MB-231 cells assessed as suppression of serum-induced cell migration at 50 uM after 24 hrs by wound-healing assay relative to control; format: cell-based
MDA-MB-231 [8] = test: (§1) Inhibition of PI3K-dependent Rac1 activation in human MDA-MB-231 cells assessed as suppression of serum-induced cell invasion into matrigel at 10 uM preincubated for 30 mins with cells followed by loading into upper well of matrigel coated filter measured after 15 hrs by Boyden chamber analysis relative to control; format: cell-based
MDA-MB-231 [9] = test: as §1, with “25” for “10”; format: cell-based
MDA-MB-231 [10] = test: as §1, with “50” for “10”; format: cell-based
MDA-MB-231 [11] = test: Inhibition of PI3K-dependent Rac1 activation in human MDA-MB-231 cells at 10 uM after 30 mins by ELISA relative to untreated control; format: cell-based
MDA-MB-231 [12] = test: Inhibition of PI3K-dependent Rac1 activation in human MDA-MB-231 cells at 25 uM after 30 mins by ELISA relative to untreated control; format: cell-based
MDA-MB-231 [13] = test: Inhibition of PI3K-dependent Rac1 activation in human MDA-MB-231 cells at 50 uM after 30 mins by ELISA relative to untreated control; format: cell-based
MDA-MB-231 [14] = test: Effect on total Rac1 protein expression in human MDA-MB-231 cells after 30 mins by Western blot analysis; format: functional, cell-based
MDA-MB-231 [15] = test: Inhibition of PI3K in human MDA-MB-231 cells assessed as downregulation of activated Rac1-GTP protein expression at 50 uM after 30 mins by Western blot analysis; format: cell-based
MDA-MB-231 [16] = test: Inhibition of PI3K-dependent Rac1 activation in human MDA-MB-231 cells assessed as downregulation of WAVE-2 protein expression at 10 to 50 uM after 24 hrs by Western blot analysis; format: cell-based
MDA-MB-231 [17] = test: Inhibition of PI3K-dependent Rac1 activation in human MDA-MB-231 cells assessed as downregulation of Arp-2 protein expression at 10 to 50 uM after 24 hrs by Western blot analysis; format: cell-based
MDA-MB-231 [18] = test: Inhibition of PI3K-dependent Rac1 activation in human MDA-MB-231 cells assessed as downregulation of Arp-3 protein expression at 10 to 50 uM after 24 hrs by Western blot analysis; format: cell-based
MDA-MB-231 [19] = test: Inhibition of PI3K-dependent Rac1 activation in human MDA-MB-231 cells assessed as inhibition of PAK1 phosphorylation at 10 to 50 uM after 24 hrs by Western blot analysis; format: cell-based
MDA-MB-231 [20] = test: Inhibition of PI3K-dependent Rac1 activation in human MDA-MB-231 cells assessed as inhibition of LIMK1/2 phosphorylation at 10 to 50 uM after 24 hrs by Western blot analysis; format: cell-based
MDA-MB-231 [21] = test: Inhibition of PI3K-dependent Rac1 activation in human MDA-MB-231 cells assessed as inhibition of cofilin phosphorylation at 10 to 50 uM after 24 hrs by Western blot analysis; format: cell-based
MDA-MB-231 [22] = test: Effect on total PAK1 protein level in human MDA-MB-231 cells at 10 to 50 uM after 24 hrs by Western blot analysis; format: functional, cell-based
MDA-MB-231 [23] = test: Effect on total LIMK1/2 protein level in human MDA-MB-231 cells at 10 to 50 uM after 24 hrs by Western blot analysis; format: functional, cell-based
MDA-MB-231 [24] = test: Effect on total cofilin protein level in human MDA-MB-231 cells at 10 to 50 uM after 24 hrs by Western blot analysis; format: functional, cell-based
MDA-MB-231 [25] = test: Inhibition of PI3K-dependent Rac1 activation in human MDA-MB-231 cells assessed as inhibition of lamellipodia formation at 50 uM after 24 hrs by rhodamine phalloidin/DAPI staining-based confocal microscopic analysis; format: cell-based
MDA-MB-231 [26] = test: Inhibition of PI3K phosphorylation in human MDA-MB-231 cells at 10 to 50 uM after 24 hrs by Western blot analysis; format: cell-based
MDA-MB-231 [27] = test: Inhibition of PI3K in human MDA-MB-231 cells assessed as inhibition of AKT phosphorylation at 10 to 50 uM after 24 hrs by Western blot analysis; format: cell-based
MDA-MB-231 [28] = test: Effect on total PI3K protein level in human MDA-MB-231 cells at 10 to 50 uM after 24 hrs by Western blot analysis; format: functional, cell-based
MDA-MB-231 [29] = test: Effect on total AKT protein level in human MDA-MB-231 cells at 10 to 50 uM after 24 hrs by Western blot analysis; format: functional, cell-based

COC[C@H]1OC(=O)c2coc3c2[C@@]1(C)C1=C(C3=O)[C@@H]2CCC(=O)[C@@]2(C)C[C@H]1OC(C)=O
inhibition (MDA-MB-231 [1]): Active | Activity (MDA-MB-231 [2]): inactive

COc1ccc(/C=C/c2cc(O)cc(O)c2)cc1O
Activity (MDA-MB-231 [3]): Toxic | Activity (MDA-MB-231 [4]): Non-toxic | inhibition (Homo sapiens [5]): 25% | inhibition (Homo sapiens [6]): 44% | inhibition (Homo sapiens [7]): 70% | inhibition (MDA-MB-231 [8]): 26% | inhibition (MDA-MB-231 [9]): 50% | inhibition (MDA-MB-231 [10]): 68% | inhibition (MDA-MB-231 [11]): 17% | inhibition (MDA-MB-231 [12]): 25% | inhibition (MDA-MB-231 [13]): 44% | Activity (MDA-MB-231 [14]): inactive | inhibition (MDA-MB-231 [15]): Active | inhibition (MDA-MB-231 [16]): Active | inhibition (MDA-MB-231 [17]): Active | inhibition (MDA-MB-231 [18]): Active | inhibition (MDA-MB-231 [19]): Active | inhibition (MDA-MB-231 [20]): Active | inhibition (MDA-MB-231 [21]): Active | Activity (MDA-MB-231 [22]): inactive | Activity (MDA-MB-231 [23]): inactive | Activity (MDA-MB-231 [24]): inactive | inhibition (MDA-MB-231 [25]): Active | inhibition (MDA-MB-231 [26]): Active | inhibition (MDA-MB-231 [27]): Active | Activity (MDA-MB-231 [28]): inactive | Activity (MDA-MB-231 [29]): inactive
